Data from patent publication US11766446B2, “Treatment of aging-associated conditions by DNA degradation” (The General Hospital Corporation, priority 2018, dated 2023).

Key:
Format in all cases: cell-based, human
MRC5 cells [1] = assay: Immunofluorescence anti-dsDNA staining of nuclear and cytosolic DNA in young and old MRC5 cells; conditions: 24 hr
Protocol: Cells were cultured in Lab-Tek II 8-well chamber slides, fixed with 4% PFA (10 min), permeabilized with 0.5% Triton X-100 (5 min), then blocked and stained with antibodies against: dsDNA (Santa Cruz, 1:500), 7H2AX, NUP98, pTBK1 (both Cell Signaling, 1:200), LC3 (Novus Biologicals, 1:200) or biotin-LAMP1 (BioLegend, 1:200), followed by fluorescent secondary antibodies (45 min). Methanol fixation was used for anti-pIRF3 (Cell Signaling, 1:200) staining.
Nuclear and cytosolic DNA signals from 5 of 10× or 20× images (˜50-200 cells per image) were quantified using Fiji. Region of interest (ROI) was defined in each image and threshold set to measure fluorescence above background. Nuclear ROI was defined by DAPI staining and its intensity subtracted from total fluorescence to determine cytoplasmic signal. Quantitative fluorescence was presented as integrated density per cell with cell number determined by particle count of DAPI.

MRC5 cells [2] = assay: TUNEL assay detecting DNA fragmentation (nicked DNA) in young and old MRC5 cells; conditions: Ara-C 10 μM, 24 hr, FIG. 1B
Text: (§1) Ara-C, bafilomycin A1 and rapamycin were from Sigma-Aldrich (St. Louis, Mo.); SA β-gal Staining Kit was from Cell Signaling (Danvers, Mass.); TUNEL Apo-Green detection reaction mixture was from Biomake (Houston, Tex.).

MRC5 cells [3] = assay: SA-β-gal activity staining in young and old MRC5 cells; conditions: aged MRC5 cells; Ara-C 10 μM, 24 h; FIG. 6F
Text: as §1

MRC5 cells [4] = assay: RT-qPCR expression of IFNI-inducible, inflammatory and cell-cycle genes in young and old cells; conditions: old MRC5 cells
Protocol: 0.25-1 μg of total RNA was reverse-transcribed with High Capacity cDNA Reverse Transcription kit (Applied Biosystems). Quantitative PCR was then performed using LightCyler® 480 SYBR Master I reagents (Roche) on LightCyler® 96 instrument. Transcript levels were normalized to B2M or GAPDH. Primer pairs used are listed below.

[5] = bafilomycin 20 nM, 8 hr, FIG. 2F

Nc1ccn([C@@H]2O[C@H](CO)[C@@H](O)[C@@H]2O)c(=O)n1 [Ara-C, cytarabine]
nuclear DNA in old cells (anti-dsDNA IF) (MRC5 cells [1]; old MRC5 cells, Ara-C 10 μM, FIG. 1C): more nuclear DNA
extranuclear DNA in young cells (anti-dsDNA IF) (MRC5 cells [1]; young MRC5 cells, Ara-C 10 μM, FIG. 1C): more extranuclear DNA
nicked DNA (TUNEL staining) in old cells (MRC5 cells [2]): more intense
percentage of SA-β-gal+ cells (MRC5 cells [3]): further increased
CXCL10 expression (RT-qPCR) (MRC5 cells [4]; Ara-C 10 μM, 24 hr, FIG. 2A): further increased
IL-6 expression (RT-qPCR) (MRC5 cells [4]; Ara-C 10 μM, 24 hr, FIG. 2A): further increased
MX1 expression (RT-qPCR) (MRC5 cells [4]; Ara-C 10 μM, 24 hr, FIG. 2A): further increased

CO/C1=C\C(C)=C\[C@@H](C)[C@@H](O)[C@@H](C)C/C(C)=C/C=C/[C@H](OC)[C@@H]([C@@H](C)[C@@H](O)[C@H](C)[C@@]2(O)C[C@@H](O)[C@H](C)[C@@H](C(C)C)O2)OC1=O [bafilomycin A1]
CXCL10 expression (RT-qPCR) (MRC5 cells [4]; [5]): increased levels
MX1 expression (RT-qPCR) (MRC5 cells [4]; [5]): increased levels

CCC(=C/[C@H](C)C/C=C/C(C)=C/[C@@H](C)C(=O)[C@@H](C)[C@H](O)[C@@H](C)C/C(C)=C/C(=O)O)/C=C/[C@@H]1OC(=O)C=C[C@@H]1C [leptomycin B]
dsDNA staining in nuclei (anti-dsDNA IF) (MRC5 cells [1]; LMB-treated cells, 20 nM, FIG. 1D): some increase
cytosolic DNA in old cells (anti-dsDNA IF) (MRC5 cells [1]; old MRC5 cells, LMB 20 nM, FIG. 1D): dramatic reduction
